Publication PMC5209718, “Piscidin-1-analogs with double L- and D-lysine residues exhibited different conformations in lipopolysaccharide but comparable anti-endotoxin activities” (Scientific Reports, 2017)
Converted amounts (≈) assume the structure as drawn. Read-outs that look alike come from different tables or passages of the source. Residues, ends and D or L forms follow the SMILES beside them.

How the values were obtained:
[1] = system: human red blood cells (hRBCs); format: cell-based
Description: Cytotoxic activity of piscidin-1 and its designed analogs was examined by assaying the lysis of human red blood cells (hRBCs) and the viability of murine 3T3 cells in presence of these peptides. […] Introduction of D-lysine (dK)residues instead of threonine residues at 15th & 21st positions further reduced the haemolytic activity of piscidin-1 (Fig. 1A). Overall, haemolytic activity of these peptides against hRBCs followed the order piscidin-1 > T15K-piscidin-1 > T15dK-piscidin-1 > T15,21K-piscidin-1 > T15,21dK-piscidin-1. Viability of 3T3 cells as determined by MTT assay in the presence of these peptides followed the same trend as their haemolytic activity (Fig. 1B).
Haemolytic activity of the peptides against human red blood cells in PBS was performed by assaying the ability of the peptides to lyse the hRBCs[24][48]. For this purpose, fresh human red blood cells (hRBCs) were collected in the presence of an anti-coagulant from a healthy volunteer. After washing the blood three times with PBS haemolytic activity of the peptides were determined as reported previously. Methodology of our experiment with human blood was in accordance with relevant guidelines and regulations of CSIR-central drug research institute ethics committee and was approved by it with approval No. CDRI/IEC/2014/A5. Further, informed consent was obtained from the healthy volunteer before collection of blood as per the guideline of our Institutional ethics committee.

[2] = system: E. coli 0111:B4 LPS-administered mice; assay: In vivo anti-LPS activity: survival of LPS-administered mice (septic shock); conditions: BALB/c mice, monitored 7 days; for survival of LPS-administered mice: n = 5
Description: Septic shock in BALB/c mice was induced by intraperitoneal (i.p.) injection of E. coli LPS (12 mg/kg) followed by i.p. injection of T15,21K-piscidin-1 (0.5 mg/Kg) or T15,21dK-piscidin-1 (1 mg/Kg) or polymyxin B (1 mg/Kg) ~5 min later. Mice treated with only saline was taken as control. Survival of the animals (n = 5) was monitored for 7 days (***p < 0.0001, log-rank test).
Polymyxin B was taken as the positive control and the experiments were performed as reported earlier[14][30][31].
In vivo studies, treat ment of Mice
Female BALB/c mice (National laboratory animal centre, central drug research institute,
Lucknow) we re given a s tandard laborato r y diet an d water ad libitum and housed under controlled
environmental conditions. The mice wer e approx imatel y 25 g each at the st art of experiments. All
the mice were divided into experimental groups for the administration of LPS and peptides. Mice
were treated with 12 m g/ kg E. coli 0111: B4 LPS i n presen ce and in absen ce of peptide in different
experimental groups. The mice treated with saline onl y, in absence of LP S were considered as
experimental controls. To study the efficacy of a peptide in neutralizing LPS-induced pro-
inflammatory responses in mice ~5 min post LPS treatment, the respective peptide was
administered i.p. at a site other than the one, used for LPS injection. […] Survival of mice was
monitored for 7 da ys. Survival of mice was also mo nitored following th e treatment of onl y p eptides
for investigating their toxic effects.

[3] = no LPS, BALB/c mice, data not shown
[4] = system: K. pneumoniae (ATCC 27736); assay: microbe, parasite or virus in culture; format: cell-based; conditions: ATCC 27736
Description: (§1) Piscidin-1 and its analogs were examined for bacterial growth-inhibiting activity in liquid cultures against Gram-positive bacteria including MRSA strains and Gram-negative bacteria (Table 2). […] The therapeutic index is a parameter that signify the specificity or selectivity of antimicrobial agents towards microorganisms over mammalian cells.
(§2) Antibacterial assays with all the peptides were done in 96-well microtiter plates against different Gram-positive, Gram-negative and resistant bacteria as described earlier.

[5] = system: Staphylococcus aureus (ATCC 29213); assay: microbe, parasite or virus in culture; format: cell-based; conditions: ATCC 29213
Description: as §1, §2

B. subtilis (ATCC 6633) = assay: microbe, parasite or virus in culture; format: cell-based; conditions: ATCC 6633
Description: as §1, §2

[6] = system: Staphylococcus aureus (ATCC 25923); assay: microbe, parasite or virus in culture; format: cell-based; conditions: ATCC 25923
Description: as §1, §2

[7] = system: P. aeruginosa (ATCC BAA-427); assay: microbe, parasite or virus in culture; format: cell-based; conditions: ATCC BAA-427
Description: as §1, §2

[8] = system: Staphylococcus aureus (ATCC 700698 MRSA); assay: microbe, parasite or virus in culture; conditions: ATCC 700698
Description: as §1, §2

[9] = system: Staphylococcus aureus (ATCC 700699 MRSA); assay: microbe, parasite or virus in culture; conditions: ATCC 700699
Description: as §1, §2

[10] = system: Staphylococcus aureus (ATCC BAA-44 MRSA); assay: microbe, parasite or virus in culture; conditions: ATCC BAA-44
Description: as §1, §2

[11] = system: Staphylococcus aureus (ATCC 33592 Gentamycin Resistant); assay: microbe, parasite or virus in culture; conditions: ATCC 33592
Description: as §1, §2

[12] = system: Staphylococcus aureus (ATCC 1708 MRSA); assay: microbe, parasite or virus in culture; conditions: ATCC 1708
Description: as §1, §2

E. coli (ATCC 25922) = assay: Antibacterial activity (MIC), liquid culture in 96-well microtiter plates; format: cell-based; conditions: means of three independent experiments each in duplicate ± SD, read-out: Minimum inhibitory conc. (MIC) against bacteria 11
Description: as §1, §2

| Compound | HC50, peptide concentration leading to 50% lysis of human RBC [1] [µM] | survival of LPS-administered mice ([2]; peptide 1.0 mg/Kg i.p. ~5 min after LPS 12.0 mg/Kg i.p.) [%] | mortality rate of LPS-administered mice ([2]; single dose 1.0 mg/kg i.p. after LPS 12 mg/kg) | survival of control mice treated only with peptide ([3]; 1.0 mg/kg) [%] | Minimum inhibitory conc. (MIC) against bacteria 10 [4] [µM] | Minimum inhibitory conc. (MIC) against bacteria 2 [5] [µM] | Minimum inhibitory conc. (MIC) against bacteria 9 (B. subtilis (ATCC 6633)) [µM] | Minimum inhibitory conc. (MIC) against bacteria 1 [6] [µM] | Minimum inhibitory conc. (MIC) against bacteria 8 [7] [µM] | Minimum inhibitory conc. (MIC) against bacteria 6 [8] [µM] | Minimum inhibitory conc. (MIC) against bacteria 3 [9] [µM] | Minimum inhibitory conc. (MIC) against bacteria 5 [10] [µM] | Minimum inhibitory conc. (MIC) against bacteria 4 [11] [µM] | Minimum inhibitory conc. (MIC) against bacteria 7 [12] [µM] | MIC (E. coli (ATCC 25922)) [µM] | survival of LPS-administered mice ([2]; peptide 0.5 mg/Kg i.p. ~5 min after LPS 12.0 mg/Kg i.p.) [%] | mortality rate of LPS-administered mice ([2]; single dose 0.5 mg/kg i.p. after LPS 12 mg/kg) | survival of control mice treated only with peptide ([3]; 0.5 mg/kg) [%] |
| --- | --- | --- | --- | --- | --- | --- | --- | --- | --- | --- | --- | --- | --- | --- | --- | --- | --- | --- |
| CC[C@H](C)[C@H](NC(=O)CNC(=O)[C@H](CCCNC(=N)N)NC(=O)[C@H](Cc1ccccc1)NC(=O)[C@@H](NC(=O)[C@H](Cc1c[nH]cn1)NC(=O)[C@H](Cc1c[nH]cn1)NC(=O)[C@H](Cc1ccccc1)NC(=O)[C@@H](N)Cc1ccccc1)[C@@H](C)CC)C(=O)N[C@H](C(=O)N[C@@H](Cc1c[nH]cn1)C(=O)N[C@H](C(=O)NCC(=O)N[C@@H](CCCCN)C(=O)N[C@H](CCCCN)C(=O)N[C@H](C(=O)N[C@@H](Cc1c[nH]cn1)C(=O)N[C@@H](CCCNC(=N)N)C(=O)N[C@@H](CC(C)C)C(=O)N[C@H](C(=O)N[C@H](CCCCN)C(=O)NCC(N)=O)C(C)C)[C@@H](C)CC)C(C)C)C(C)C [T15,21dK Piscidin-1] (HELM PEPTIDE1{F.F.H.H.I.F.R.G.I.V.H.V.G.K.[dK].I.H.R.L.V.[dK].G.[am]}$$$$V2.0) | 500 | 100 | zero | 100 | 5.0 ± 0.7 (≈ 13.1 µg/mL) | 5.0 ± 0.7 (≈ 13.1 µg/mL) | 9.0 ± 1.3 (≈ 23.6 µg/mL) | 5.0 ± 0.7 (≈ 13.1 µg/mL) | 9.0 ± 1.3 (≈ 23.6 µg/mL) | 10.0 ± 1.4 (≈ 26.3 µg/mL) | 10.0 ± 1.4 (≈ 26.3 µg/mL) | 5.0 ± 0.7 (≈ 13.1 µg/mL) | 5.0 ± 0.7 (≈ 13.1 µg/mL) | 5.0 ± 0.7 (≈ 13.1 µg/mL) | 5.0 (≈ 13.1 µg/mL) |  |  |  |
| H-FFHHIFRGIVHVGKKIHRLVKG-NH2 [T15,21K Piscidin-1] | 200 |  |  |  | 3.0 ± 0.4 | 2.5 ± 0.4 | 5.0 ± 0.7 | 1.25 ± 0.3 | 5.0 ± 0.7 | 2.5 ± 0.4 | 2.5 ± 0.4 | 1.25 ± 0.3 | 2.5 ± 0.4 | 1.25 ± 0.3 | 2.0 | 100 | zero | 100 |
